Measured values: US7227038B2, “Adamantane derivatives, processes for their preparation and pharmaceutical composition containing them” (AstraZeneca AB, priority 2003, dated 2007)
Structures can show the parent of a compound that is named as a salt.

target: T1, P2X7 receptor (Homo sapiens, UniProt Q99572); assay: bbATP-induced ethidium bromide uptake (fluorescence) in THP-1 cells, P2X7 receptor antagonist activity; assay type: cell-based; conditions: 10^-5M bbATP, 37° C. for one hour, read-out: pIC50 (negative logarithm of the concentration of test compound necessary to reduce the bbATP agonist activity by 50%) (converted)
T1 construct: 200 μl of a suspension of THP-1 cells; endogenous in cells; host or cells: THP-1 cells
T1 sequence (Q99572 1-595): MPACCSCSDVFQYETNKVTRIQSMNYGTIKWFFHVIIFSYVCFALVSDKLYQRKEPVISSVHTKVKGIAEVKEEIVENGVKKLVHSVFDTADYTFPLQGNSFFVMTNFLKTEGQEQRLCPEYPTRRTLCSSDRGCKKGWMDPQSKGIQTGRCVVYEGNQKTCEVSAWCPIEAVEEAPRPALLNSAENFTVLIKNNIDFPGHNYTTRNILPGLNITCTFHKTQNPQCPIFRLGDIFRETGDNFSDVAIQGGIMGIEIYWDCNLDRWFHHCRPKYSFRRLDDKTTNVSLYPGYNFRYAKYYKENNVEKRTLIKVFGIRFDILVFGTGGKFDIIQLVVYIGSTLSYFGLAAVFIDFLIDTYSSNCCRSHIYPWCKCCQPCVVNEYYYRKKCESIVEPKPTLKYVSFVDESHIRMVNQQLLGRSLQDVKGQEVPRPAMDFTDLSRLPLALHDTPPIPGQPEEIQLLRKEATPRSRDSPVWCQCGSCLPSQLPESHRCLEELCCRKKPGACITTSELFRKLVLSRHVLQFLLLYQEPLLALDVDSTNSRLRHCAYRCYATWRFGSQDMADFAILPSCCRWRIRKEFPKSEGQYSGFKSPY
Excerpt: Certain compounds such as benzoylbenzoyl adenosine triphosphate (bbATP) are known to be agonists of the P2X7 receptor, effecting the formation of pores in the plasma membrane (Drug Development Research (1996), 37(3), p.126). Consequently, when the receptor is activated using bbATP in the presence of ethidium bromide (a fluorescent DNA probe), an increase in the fluorescence of intracellular DNA-bound ethidium bromide is observed. The increase in fluorescence can be used as a measure of P2X7 receptor activation and therefore to quantify the effect of a compound on the P2X7 receptor.
In this manner, each of the title compounds of the Examples was tested for antagonist activity at the P2X7 receptor. Thus, the test was performed in 96-well flat bottomed microtitre plates, the wells being filled with 250 μl of test solution comprising 200 μl of a suspension of THP-1 cells (2.5×10^6 cells/ml) containing 10^−4M ethidium bromide, 25 μl of a high potassium buffer solution containing 10^−5M bbATP, and 25 μl of the high potassium buffer solution containing 3×10^−5M test compound. The plate was covered with a plastics sheet and incubated at 37° C. for one hour. The plate was then read in a Perkin-Elmer fluorescent plate reader, excitation 520 nm, emission 595 nm, slit widths: Ex 15 nm, Em 20 nm. […]

| Structure (SMILES) | IC50 [nM] |
| --- | --- |
| CN(C)C[C@H](O)Cc1ccc(Cl)c(C(=O)NCC23CC4CC(CC(C4)C2)C3)c1 [Example 8, 2-Chloro-5-[(2R)-3-(dimethylamino)-2-hydroxypropyl]-N-(tricyclo[3.3.1.1^3,7]dec-1-ylmethyl)-benzamide, hydrochloride] | 3.98 |
| CNC[C@@H](O)CCc1ccc(Cl)c(C(=O)NCC23CC4CC(CC(C4)C2)C3)c1.Cl [Example 1, 2-Chloro-5-[(3S)-3-hydroxy-4-(methylamino)butyl]-N-(tricyclo[3.3.1.1^3,7]dec-1-ylmethyl)benzamide, hydrochloride] | 10 |

tested on: not given; assay: not given; conditions: not given

| Structure (SMILES) | melting point |
| --- | --- |
| O=C(NCC12CC3CC(CC(C3)C1)C2)c1cc(C[C@@H](O)CNCCCO)ccc1Cl (as salt: hydrochloride) | 225 °C |
| CC(C)NC[C@H](O)Cc1ccc(Cl)c(C(=O)NCC23CC4CC(CC(C4)C2)C3)c1 (as salt: hydrochloride) | 189 °C |
| CCNC[C@@H](O)Cc1ccc(Cl)c(C(=O)NCC23CC4CC(CC(C4)C2)C3)c1 (as salt: hydrochloride) [Example 14, 2-Chloro-5-[(2S)-3-(ethylamino)-2-hydroxypropyl]-N-(tricyclo [3.3.1.1^3,7]dec-1-ylmethyl)-benzamide, hydrochloride salt] | 214 °C |
| CNC[C@@H](O)Cc1ccc(Cl)c(C(=O)NCC23CC4CC(CC(C4)C2)C3)c1 (as salt: hydrochloride) | 196 °C |
| CCNC[C@H](O)Cc1ccc(Cl)c(C(=O)NCC23CC4CC(CC(C4)C2)C3)c1 (as salt: hydrochloride) | 218 °C |
| CNC[C@@H](O)CCc1ccc(Cl)c(C(=O)NCC23CC4CC(CC(C4)C2)C3)c1.Cl [Example 1, 2-Chloro-5-[(3S)-3-hydroxy-4-(methylamino)butyl]-N-(tricyclo[3.3.1.1^3,7]dec-1-ylmethyl)benzamide, hydrochloride] | > 200 °C (dec.) |
